In test [1] the target is T1, EGFR tyrosine kinase (Homo sapiens, UniProt P00533).
T1 construct: Recombinant intracellular fragments of EGFR, erbB2 and erbB4; made in house; host or cells: baculovirus/Sf21 insect cells (cleared lysate used)
Briefly: Protein tyrosine kinase phosphorylation assay, Test (a), EGFR. To be noted: read-out: IC50 (μM) Test (a): Inhibition of EGFR tyrosine kinase protein phosphorylation. Format: biochemical. As to the method:
This test measures the ability of a test compound to inhibit the phosphorylation of a tyrosine containing polypeptide substrate by EGFR tyrosine kinase enzyme.
(§1) Recombinant intracellular fragments of EGFR, erbB2 and erbB4 (accession numbers X00588, X03363 and L07868 respectively) were cloned and expressed in the baculovirus/Sf21 system. Lysates were prepared from these cells by treatment with ice-cold lysis buffer (20 mM N-2-hydroxyethylpiperizine-N′-2-ethanesulfonic acid (HEPES) pH7.5, 150 mM NaCl, 10% glycerol, 1% Triton X-100, 1.5 mM MgCl2, 1 mM ethylene glycol-bis(β-aminoethyl ether)N′,N′,N′,N′-tetraacetic acid (EGTA), plus protease inhibitors and then cleared by centrifugation.
Constitutive kinase activity of these recombinant proteins was determined by their ability to phosphorylate a synthetic peptide (made up of a random co-polymer of Glutamic Acid, Alanine and Tyrosine in the ratio of 6:3:1). […]
The immobilised phospho-peptide product of the reaction was detected by immunological methods. […] After further washing, HRP activity in each well of the plate was measured colorimetrically using 22′-Azino-di-[3-ethylbenzthiazoline sulfonate (6)]diammonium salt crystals (ABTS™ from Roche) as a substrate. Quantification of colour development and thus enzyme activity was achieved by the measurement of absorbance at 405 nm on a Molecular Devices ThermoMax microplate reader. […]

Test [2] concerns the target T2, erbB2 tyrosine kinase (Homo sapiens, UniProt P04626).
T2 construct: Recombinant intracellular fragments of EGFR, erbB2 and erbB4; made in house; host or cells: baculovirus/Sf21 insect cells (cleared lysate used)
The experiment in a line: Protein tyrosine kinase phosphorylation assay, Test (a), erbB2. Format: biochemical. To be noted: read-out: IC50 (μM) Test (a): Inhibition of erbB2 tyrosine kinase protein phosphorylation. Here is the method: as §1
Constitutive kinase activity of these recombinant proteins was determined by their ability to phosphorylate a synthetic peptide (made up of a random co-polymer of Glutamic Acid, Alanine and Tyrosine in the ratio of 6:3:1). Specifically, Maxisorb™ 96-well immunoplates were coated with synthetic peptide (0.2 μg of peptide in a […] phosphate buffered saline (PBS) solution and incubated at 4° C. overnight). Plates were washed in 50 mM HEPES pH 7.4 at room temperature to remove any excess unbound synthetic peptide. EGFR or erbB2 activities were assessed by incubation in peptide coated plates for 20 minutes at room temperature in 100 mM HEPES pH 7.4 at room temperature, adenosine trisphosphate (ATP) at Km concentration for the respective enzyme, 10 mM MnCl2, 0.1 mM Na3VO4, 0.2 mM DL-dithiothreitol (DTT), 0.1% Triton X-100 with test compound in DMSO (final concentration of 2.5%). […]
The immobilised phospho-peptide product of the reaction was detected by immunological methods. […] After further washing, HRP activity in each well of the plate was measured colorimetrically using 22′-Azino-di-[3-ethylbenzthiazoline sulfonate (6)]diammonium salt crystals (ABTS™ from Roche) as a substrate. Quantification of colour development and thus enzyme activity was achieved by the measurement of absorbance at 405 nm on a Molecular Devices ThermoMax microplate reader. Kinase inhibition for a given compound was expressed as an IC50 value. […] The range of phosphorylation was calculated from the positive (vehicle plus ATP) and negative (vehicle minus ATP) control values.

Test [3] has as its target T3, erbB2 (Homo sapiens, UniProt P04626).
T3 construct: a cell line that overexpresses full length wild type erbB2 protein; expressed in transfected cells; host or cells: MCF7 (breast carcinoma) derived 'Clone 24' cells
Briefly: Clone 24 phospho-erbB2 cell assay, Test (c). The settings on record: MCF7 derived cell line overexpressing erbB2 (Clone 24 cells); read-out: IC50 (μM) Test (c): Inhibition of erbB2 tyrosine kinase protein phosphorylation. The class given is cell-based. As to the method:
This immunofluorescence end point assay measures the ability of a test compound to inhibit the phosphorylation of erbB2 in a MCF7 (breast carcinoma) derived cell line which was generated by transfecting MCF7 cells with the full length erbB2 gene using standard methods to give a cell line that overexpresses full length wild type erbB2 protein (hereinafter ‘Clone 24’ cells).
Clone 24 cells were cultured in Growth Medium (phenol red free Dulbecco's modified Eagle's medium (DMEM) containing 10% foetal bovine serum, 2 mM glutamine and 1.2 mg/ml G418) in a 7.5% CO2 air incubator at 37° C. Cells were harvested from T75 stock flasks by washing once in PBS (phosphate buffered saline, pH7.4, Gibco No. 10010-015) and harvested using 2 mls of Trypsin (1.25 mg/ml)/ethylaminediaminetetraacetic acid (EDTA) (0.8 mg/ml) solution. The cells were resuspended in Growth Medium. Cell density was measured using a haemocytometer and viability was calculated using Trypan Blue solution before being further diluted in Growth Medium and seeded at a density of 1×10^4 cells per well (in 100 ul) into clear bottomed 96 well plates (Packard, No. 6005182).
3 days later, Growth Medium was removed from the wells and replaced with 100 ul Assay Medium (phenol red free DMEM, 2 mM glutamine, 1.2 mg/ml G418) either with or without erbB inhibitor compound. Plates were returned to the incubator for 4 hrs and then 20 μl of 20% formaldehyde solution in PBS was added to each well and the plate was left at room temperature for 30 minutes. This fixative solution was removed with a multichannel pipette, 100 μl of PBS was added to each well and then removed with a multichannel pipette and then 50 μl PBS was added to each well. Plates were then sealed and stored for up to 2 weeks at 4° C.
Immunostaining was performed at room temperature. […]
The Fluorescence signal is each well was measured using an Acumen Explorer Instrument (Acumen Bioscience Ltd.), a plate reader that can be used to rapidly quantitate features of images generated by laser-scanning. […]

For three molecules, IC50 results are on record in patent US20070015743A1, “Quinazoline derivatives as antitumor agents” (priority 2003, published 2007).

T2 sequence (P04626 676-1255 limits assumed): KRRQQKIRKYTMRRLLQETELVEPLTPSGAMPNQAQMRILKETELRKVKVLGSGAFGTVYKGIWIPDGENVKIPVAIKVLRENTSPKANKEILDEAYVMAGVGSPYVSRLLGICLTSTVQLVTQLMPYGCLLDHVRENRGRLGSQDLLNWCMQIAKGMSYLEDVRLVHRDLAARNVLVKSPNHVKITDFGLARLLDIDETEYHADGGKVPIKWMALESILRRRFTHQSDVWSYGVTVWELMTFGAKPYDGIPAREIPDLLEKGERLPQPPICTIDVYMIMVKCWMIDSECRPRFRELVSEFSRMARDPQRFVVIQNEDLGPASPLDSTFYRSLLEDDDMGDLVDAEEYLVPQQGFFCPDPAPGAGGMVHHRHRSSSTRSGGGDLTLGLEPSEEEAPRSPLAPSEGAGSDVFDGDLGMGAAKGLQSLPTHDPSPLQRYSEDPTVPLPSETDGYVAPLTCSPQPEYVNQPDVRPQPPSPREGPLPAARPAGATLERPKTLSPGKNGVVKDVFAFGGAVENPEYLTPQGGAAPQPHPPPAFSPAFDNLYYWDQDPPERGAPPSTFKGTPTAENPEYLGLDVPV
T3 sequence (P04626 23-1255): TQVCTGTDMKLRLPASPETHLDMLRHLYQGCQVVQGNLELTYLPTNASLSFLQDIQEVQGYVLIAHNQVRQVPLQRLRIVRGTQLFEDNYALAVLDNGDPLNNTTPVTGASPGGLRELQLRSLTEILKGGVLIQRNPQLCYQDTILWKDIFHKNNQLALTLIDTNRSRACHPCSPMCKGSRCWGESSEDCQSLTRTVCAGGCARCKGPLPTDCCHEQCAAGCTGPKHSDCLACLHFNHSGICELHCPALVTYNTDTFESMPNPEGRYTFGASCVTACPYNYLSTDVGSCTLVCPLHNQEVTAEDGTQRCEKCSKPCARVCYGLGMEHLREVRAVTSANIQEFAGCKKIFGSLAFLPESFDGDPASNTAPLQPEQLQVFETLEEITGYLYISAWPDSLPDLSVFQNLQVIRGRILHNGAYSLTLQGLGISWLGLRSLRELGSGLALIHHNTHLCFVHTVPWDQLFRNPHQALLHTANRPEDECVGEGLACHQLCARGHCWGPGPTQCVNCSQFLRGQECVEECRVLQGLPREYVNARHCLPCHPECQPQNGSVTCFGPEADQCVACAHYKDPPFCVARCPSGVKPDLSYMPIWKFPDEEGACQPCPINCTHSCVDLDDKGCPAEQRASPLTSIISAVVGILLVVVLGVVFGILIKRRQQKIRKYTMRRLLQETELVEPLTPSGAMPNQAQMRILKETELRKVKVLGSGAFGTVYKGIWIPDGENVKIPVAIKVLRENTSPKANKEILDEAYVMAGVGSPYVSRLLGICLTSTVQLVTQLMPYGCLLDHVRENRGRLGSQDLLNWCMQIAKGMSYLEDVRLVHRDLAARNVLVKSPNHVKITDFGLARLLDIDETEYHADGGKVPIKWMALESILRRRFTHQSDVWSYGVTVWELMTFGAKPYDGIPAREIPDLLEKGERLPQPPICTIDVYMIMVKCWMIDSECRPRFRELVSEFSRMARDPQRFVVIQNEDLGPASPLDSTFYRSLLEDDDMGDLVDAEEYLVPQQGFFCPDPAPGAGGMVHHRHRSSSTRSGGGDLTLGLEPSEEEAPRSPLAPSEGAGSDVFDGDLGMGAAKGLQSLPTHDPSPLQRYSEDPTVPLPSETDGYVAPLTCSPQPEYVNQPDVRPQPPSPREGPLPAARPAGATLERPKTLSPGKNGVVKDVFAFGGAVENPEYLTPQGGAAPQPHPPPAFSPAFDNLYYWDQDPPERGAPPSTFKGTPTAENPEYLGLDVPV
T1 sequence (P00533 669-1210 limits assumed): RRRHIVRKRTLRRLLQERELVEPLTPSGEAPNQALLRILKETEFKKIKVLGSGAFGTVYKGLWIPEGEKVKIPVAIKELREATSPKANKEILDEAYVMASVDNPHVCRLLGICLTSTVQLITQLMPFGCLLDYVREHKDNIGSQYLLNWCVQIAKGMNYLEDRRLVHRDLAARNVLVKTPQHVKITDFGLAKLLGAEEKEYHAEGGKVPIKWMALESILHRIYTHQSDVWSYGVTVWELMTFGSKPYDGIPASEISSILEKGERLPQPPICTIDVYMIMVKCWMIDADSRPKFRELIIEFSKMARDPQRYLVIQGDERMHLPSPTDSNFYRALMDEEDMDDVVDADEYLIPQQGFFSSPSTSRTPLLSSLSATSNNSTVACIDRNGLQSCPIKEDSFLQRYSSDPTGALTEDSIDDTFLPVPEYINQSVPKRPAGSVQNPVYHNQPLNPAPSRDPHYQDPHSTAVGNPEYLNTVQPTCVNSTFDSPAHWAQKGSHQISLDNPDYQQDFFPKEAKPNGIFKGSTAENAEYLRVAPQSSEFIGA

Turning to `Cc1cccc(COc2ccc(Nc3ncnc4cccc(OC[C@@H]5CCCN5C(=O)CO)c34)cc2Cl)n1` [Example 40], the IC50 – broadly, the point on the concentration scale where inhibition reaches its midpoint – in test [1] was found to be 33 µM; in test [2], 0.63 µM; in test [3] it was 2.4 µM.
For `O=C(CO)N1CCC[C@H](COc2cccc3ncnc(Nc4ccc(OCc5cscn5)c(Cl)c4)c23)C1` [Example 78, 2-((3S)-3-{[(4-{[3-chloro-4-(1,3-thiazol-4-ylmethoxy)phenyl]amino}quinazolin-5-yl)oxy]methyl}piperidin-1-yl)-2-oxoethanol], the IC50 in test [1] was 2.4 µM; in test [2], 0.034 µM; in test [3], 0.19 µM.
With `CN(C)CC(=O)N1CCC[C@@H]1COc1cccc2ncnc(Nc3ccc(OCc4cncs4)c(Cl)c3)c12` [Example 25, N-[3-Chloro-4-(1,3-thiazol-5-ylmethoxy)phenyl]-5-({(2R)-1-[(dimethylamino)acetyl]pyrrolidin-2-yl}methoxy)quinazolin-4-amine], the IC50 in test [2] was 0.048 µM; in test [3], 1.4 µM.
